Results taken from patent publication US5571820A, “Heterocyclic compound” (Taisho Pharmaceutical Co., Ltd., priority 1992, dated 1996).

System: gastric motility
Experiment: Activity on gastric motility in rat (balloon in stomach, conscious)
Format: in vivo, male Wistar rats
Conditions: for Contraction frequency (% of value prior to administration) / Motility index (% of value prior to administration): 1 mg/kg i.p.
Description: Experiment 2. Activity on Gastric Motility in Rat Male Wistar rats weighing 250 to 350 g were fasted for 18 hours and then provided for experiment. The abdominal cavity was opened under ether anesthesia and a rubber balloon was inserted into the stomach via the forestomach. A cannula for administering a drug was put in the peritoneal cavity. After recovery from the anesthesia, the balloon was connected to low pressure transducers to record gastric motility in the conscious state. The compound of the present invention was suspended in physiological saline and the suspension was intraperitoneally administered. Contraction frequency and motility index are shown in terms of a proportion (%) of a mean value calculated for 15 minutes to a value prior to administration (0 minute). The value for 0 minute was made a mean value for 30 minutes prior to the administration.

[1] = 10 min after administration, N = 4
[2] = 30 min after administration, N = 4
[3] = 40 min after administration, N = 4
[4] = 50 min after administration, N = 4
[5] = 60 min after administration, N = 4

CC(C)n1c(=O)c(C(=O)N[C@H]2C[C@H]3CC[C@@H](C2)N3C)cc2ccccc21 [Compound 1, endo-N-(8-methyl-8-azabicyclo[3.2.1]oct-3-yl)-1-isopropyl-2(1H)-quinolone-3-carboxamide]
Contraction frequency (% of value prior to administration) [1]: 182.3% | Motility index (% of value prior to administration) [1]: 169.3% | Motility index (% of value prior to administration) (20 min after administration, N = 4): 188.1% | Contraction frequency (% of value prior to administration) (20 min after administration, N = 4, *: P < 0.05): 243.5% | Contraction frequency (% of value prior to administration) [2]: 187.0% | Motility index (% of value prior to administration) [2]: 144.2% | Contraction frequency (% of value prior to administration) [3]: 134.7% | Motility index (% of value prior to administration) [3]: 83.3% | Contraction frequency (% of value prior to administration) [4]: 134.9% | Motility index (% of value prior to administration) [4]: 88.8% | Contraction frequency (% of value prior to administration) [5]: 141.6% | Motility index (% of value prior to administration) [5]: 108.8% | effect on gastric motility (1 mg/kg, i.p.): accelerated the gastric motility
